The values below come from patent US11214803B2, “Modulators of YAP1 expression” (Ionis Pharmaceuticals, Inc., priority 2019, dated 2022).

Several values for one entry are separate records, joined by “and”; a condition that tells them apart may be missing. Equal values may be shown once. Strand notation (5' to 3'): a small letter for the sugar, then the base; units joined by * are phosphorothioate-linked, units joined directly phosphodiester-linked; [ ] holds rarer units or linkages, { } end groups; capitals alone tell only the bases. k = constrained ethyl (cEt); [5mC] = 5-methylcytosine; d = 2'-deoxy (DNA)

For series [1], the system named is Yap1 mRNA. Briefly: Antisense inhibition of human Yap1 in A-431 cells by cEt gapmers, single dose (Example 3, RTS36584). It is filed as cell-based. Put shortly: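 Single-dose free-uptake screen of 3-10-3 cEt gapmers in A-431 cells at 2,000 nM over about 48 h. Values are % untreated control Yap1 mRNA.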
For series [2], the system named is Yap1 mRNA. Briefly: Antisense inhibition of human Yap1 in A-431 cells by cEt gapmers, single dose (Example 4, RTS4814). It counts as cell-based. In a few lines: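 A-431 cells took up 3-10-3 cEt gapmers (16-mer, full phosphorothioate, 5-methylcytosines) by free uptake at 2,000 nM for about 48 h. Yap1 mRNA was quantified by qRT-PCR, normalized to total RNA (RIBOGREEN), and reported as % of untreated control.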

The test system of series [3] is Yap1 mRNA. Briefly: Dose-dependent inhibition of human Yap1 in A-431 cells (Example 8, 10,000 cells per well, RTS4814). It is filed as cell-based. The conditions noted are these: for % UTC (Yap1 mRNA) / IC50: A-431 cells; for Yap1 mRNA, % UTC: A-431 cells, 10,000 cells per well. In a few lines: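 A-431 cells (10,000/well) dosed with modified oligonucleotides by free uptake; Yap1 mRNA measured ~48 h later with primer-probe set RTS4814, normalized to total RNA (RIBOGREEN). Values are % of untreated control; IC50 from linear regression on log/linear plot.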

Series [4] in a line: Tolerability in CD-1 mice, plasma chemistry markers (Example 18). It is filed as in vivo. The conditions noted are these: male CD-1 mice, 50 mg/kg s.c. twice a week (total of 9 treatments), day 34. As to the method:
CD-1 mice were treated with modified oligonucleotides selected from studies described above and evaluated for changes in the levels of various plasma chemistry markers.
Groups of four male CD-1 mice at 5-6 weeks of age (obtained from Charles River) were injected subcutaneously twice a week for four weeks (for a total of 9 treatments) with 50 mg/kg of modified oligonucleotides. One group of male CD-1 mice was injected with PBS. Mice were euthanized on day 34 post start of treatment (24 hours following the final administration).

Series [5] in a line: Tolerability in Sprague-Dawley rats, body and organ weights (Example 20). It counts as in vivo. The note with it: male Sprague-Dawley rats, 50 mg/kg s.c. weekly for 6 weeks (7 doses); for Kidney weight / Liver weight / Spleen weight: end of study; for body weight: terminal, prior to necropsy. As to the method: Terminal body weight was measured prior to necropsy. Ionis oligonucleotides that caused any changes in organ weights outside the expected range for modified oligonucleotides were excluded from further studies.

For series [6] the following is noted: rat, in vivo, sc, 50 mg/kg.
Procedure: Male Sprague-Dawley rats were maintained on a 12-hour light/dark cycle and fed ad libitum with Purina normal rat chow. Groups of 4 Sprague-Dawley rats each were weekly injected subcutaneously with 50 mg/kg of Ionis oligonucleotide for 6 weeks (total 7 doses). Forty-eight hours after the last dose, the rats were euthanized; and organs, urine and plasma were harvested for further analysis.
To evaluate the effect of Ionis oligonucleotides on kidney function, urinary levels of total protein and creatinine were measured using an automated clinical chemistry analyzer (Hitachi Olympus AU400c, Melville, N.Y.).
The next series has as its system ERK1/2. Briefly: Measurement of ERK activation (pERK/ERK) in SNU449 xenograft model with sorafenib (second Example 30). It is filed as in vivo, human. The note with it: SNU449 xenograft tumors, pERK/ERK relative to PBS control, oligonucleotide 50 mg/kg, sorafenib 30 mg/kg orally. On the procedure: Five million SNU449 cells in 30% matrigel were implanted subcutaneously into the fatpads of female NOD.Cg-Prkdcscid II2rgtmlWjl/SzJ mice (from Jackson Laboratory) at 4-6 weeks of age. 43 days post implantation (when tumors had reached approximately 100 mm^3 in size), groups of eight mice each were administered with 50 mg/kg modified oligonucleotide daily for 10 days (loading dose), following which they were administered with 50 mg/kg modified oligonucleotide four times a week for one week, following which they were dosed with 50 mg/kg modified oligonucleotide thrice weekly until the end of the study.
Protein analysis was carried out using standard procedures. […] ERK protein levels were compared to internal control GAPDH. […] The secondary antibody used was donkey anti-rabbit NA934, GE Healthcare. pERK/ERK levels were calculated relative to PBS control to determine % activation of ERK1/2.

A word on the IC50: it is the concentration that gives 50% inhibition. A higher IC50 goes with lower potency.

Turning to “958499 (ATTAGAGTATGTGGCA; 3-10-3 cEt gapmer, further chemistry not given here) [compound 958499]”, the “YAP1 (% UTC)” value is on record as 1 % UTC in the series on Yap1 mRNA [1] (Table 26, Yap1 mRNA by 3-10-3 cEt gapmers targeting SEQ ID NO.: 1, and 2, percent of untreated control); 2 % UTC in the series on Yap1 mRNA [1] (Table 27, Yap1 mRNA by 3-10-3 cEt gapmers targeting SEQ ID NO.: 1, and 2, percent of untreated control); 2 % UTC in the series on Yap1 mRNA [1] (Table 28, Yap1 mRNA as percent of untreated control, 3-10-3 cEt gapmers targeting SEQ ID NO.: 1, and 2); 2 % UTC in the series with Yap1 mRNA [1] (Table 29, Yap1 mRNA as percent of untreated control, 3-10-3 cEt gapmers targeting SEQ ID NO.: 1, and 2); 1 % UTC in the series with Yap1 mRNA [1] (Table 34, Yap1 mRNA as percent of untreated control, 3-10-3 cEt gapmers targeting SEQ ID NO: 1 and 2, single dose); 2 % UTC in the series with Yap1 mRNA [1] (Table 35, Yap1 mRNA as percent of untreated control, 3-10-3 cEt gapmers targeting SEQ ID NO: 1 and 2, single dose). Also, the “YAP1 (% UTC)” value in the series with Yap1 mRNA [2] (Yap1 mRNA remaining as percent of untreated control, 3-10-3 cEt gapmers, A-431 cells, Table 36) is on record as 1 % UTC; in the series with Yap1 mRNA [2] (Yap1 mRNA remaining as percent of untreated control, 3-10-3 cEt gapmers, A-431 cells, Table 37) it was 2 % UTC. The “% UTC (Yap1 mRNA)” value with Yap1 mRNA [3] (31.3 nM) was 36 % UTC and 37 % UTC; in the series on Yap1 mRNA [3] (125.0 nM), 5 % UTC and 4 % UTC; in the series with Yap1 mRNA [3] (500.0 nM) it was 2 % UTC; in the series with Yap1 mRNA [3] (2000.00 nM) it was 2 % UTC. The IC50 with Yap1 mRNA [3] (Yap1 mRNA) was less than 20 nM. Moreover, the ALT in series [4] turned out to be 79 U/L. The AST in series [4] came out at 88 U/L. This substance also had a BUN in series [4] of 24 mg/dL. The substance also yielded a TBIL in series [4] of 0.18 mg/dL. This substance registered a Kidney weight in series [5] of 3.1 g. Moreover, the Liver weight in series [5] is 14 g. Besides, in series [5], the Spleen weight is given as 2.8 g. Further, the body weight in series [5] stood at 333 g. For the same substance, the “URINE P/C ratio (total protein to creatinine ratio)” value in series [6] was 5.
For the substance “958499 (kA*kT*kT*dA*dG*dA*dG*dT*dA*dT*dG*dT*dG*kG*k[5mC]*kA) [Compound 958499]”, the “YAP1 (% UTC)” value came out at 1 % UTC with Yap1 mRNA [1] (Table 12, A-431 cells, 5,000 cells per well, free uptake, 2,000 nM modified oligonucleotide, approx. 48 hours, RTS36584, normalized to RIBOGREEN, Yap1 mRNA relative to untreated control cells); 2 % UTC in the series with Yap1 mRNA [2] (Table 14, A-431 cells, 5,000 cells per well, free uptake, 2,000 nM, approximately 48 hours, RTS4814, normalized to RIBOGREEN, Yap1 mRNA relative to untreated control, * = targets amplicon region of primer probe set); 1 % UTC in the series on Yap1 mRNA [2] (Table 15, A-431 cells, 5,000 cells per well, free uptake, 2,000 nM, approximately 48 hours, RTS4814, normalized to RIBOGREEN, Yap1 mRNA relative to untreated control, * = targets amplicon region of primer probe set); 2 % UTC in the series on Yap1 mRNA [2] (Table 16, A-431 cells, 5,000 cells per well, free uptake, 2,000 nM, approximately 48 hours, RTS4814, normalized to RIBOGREEN, Yap1 mRNA relative to untreated control cells); 3 % UTC with Yap1 mRNA [2] (Table 17, A-431 cells, 5,000 cells per well, free uptake, 2,000 nM, approximately 48 hours, RTS4814, normalized to RIBOGREEN, Yap1 mRNA relative to untreated control cells).
On to “1076453 (GTAATATTGCAATCTG; 3-10-3 cEt gapmer, further chemistry not given here) [compound 1076453]”, for which the “Yap1 mRNA, % UTC” value with Yap1 mRNA [3] (31.3 nM, free uptake, approximately 48 hours, RTS4814) was found to be 11 % UTC. In addition, the “Yap1 mRNA, % UTC” value in the series with Yap1 mRNA [3] (125.0 nM, free uptake, approximately 48 hours, RTS4814) was found to be 2 % UTC. The “Yap1 mRNA, % UTC” value in the series with Yap1 mRNA [3] (500.0 nM, free uptake, approximately 48 hours, RTS4814) amounted to 1 % UTC. Moreover, the “Yap1 mRNA, % UTC” value with Yap1 mRNA [3] (2000.00 nM, free uptake, approximately 48 hours, RTS4814) was 2 % UTC. The IC50 in the series on Yap1 mRNA [3] (free uptake, approximately 48 hours, RTS4814, linear regression on log/linear plot) is less than 20 nM. In series [4], the ALT turned out to be 56 U/L, the AST was 113 U/L, the BUN was found to be 20 mg/dL and the TBIL is listed as 0.24 mg/dL. Further, in series [5], the Kidney weight came to 3.2 g, the Liver weight amounted to 16 g, the Spleen weight stood at 2.1 g and the body weight was found to be 371 g. Moreover, the “URINE P/C ratio (total protein to creatinine ratio)” value in series [6] worked out at 5.
Regarding “1198440 (AAGTGTATGTCAGAAG; cEt, 2'-MOE, 5-methylcytosine, phosphorothioate modifications, further chemistry not given here) [compound 1198440]”, the “% activation of ERK1/2” value in the series on ERK1/2 amounted to 88%.
Regarding “CGCCGATAAGGTACAC (cEt gapmer, phosphorothioate backbone, further chemistry not given here) [ION 792169, reference compound]”, in the series with ERK1/2, the “% activation of ERK1/2” value is recorded as 100%.
